# From patent US8119589B2, “Modulation of CD4+ T cell responses by a tick saliva protein, Salp15 and polypeptides derived therefrom” (University of North Carolina at Charlotte, priority 2004, dated 2012)
# Tests used:
# B cells and macrophages = test: Receptor capping in B cells and macrophages (anti-IgM, anti-CD16/CD32 cross-linking); assay type: cell-based, mouse; settings: 50 μg/mL Salp15; anti-IgM and Fc engagement
# Description: For receptor capping studies, mouse primary B and CD11^+ cells were purified by positive selection using biotin anti-mouse CD45R/B220 clone RA3-6B2 and biotin anti-mouse CD11b clone M1/70 (BD Biosciences Pharmingen) respectively, followed by incubation with magnetic microbeads. The cells were analyzed for receptor capping using 25 μg/mL anti-mouse IgM and 25 μg/mL anti-mouse CD16/CD32 respectively, cross-linked with 25 μg/mL of anti-rat IgG594 for 10 min in the presence or absence of 50 μg/mL of Salp15. CD4^+ and CD8^+ T cells were purified by negative selection and incubated with 10 μg/mL anti-CD3 and 1 μg/mL anti-CD28 cross-linked with 10 μg/mL of anti-hamster IgG488 for 10 min in the presence or absence of 50 μg/mL of Salp15.
# CD8+ T cells = test: Lipid raft reorganization (CTB594 staining) in anti-CD3/CD28 activated CD8+ T cells; assay type: cell-based, mouse; settings: Salp15 pretreatment
# Description: (§1) For the visualization of lipid rafts, phospho-tyrosine, and cytoskeleton reorganization, CD4^+, CD8^+ or Jurkat cells were cytospun for 10 minutes at 1000 RPM onto positively charged microslides (Fisher Scientific, Hampton, N.H., U.S.A.). The cells were fixed with 3.7% paraformaldehyde (Sigma Chemical Co.) for 15 minutes and stained with CTB594 (Molecular Probes, Eugene, Oreg., U.S.A.), AlexaFluor488 labeled phalloidin (Molecular Probes) or (1:50) biotin-conjugated anti-p-Tyr (PY99) followed by Streptavidin-AlexaFluor594 (1:100, Molecular Probes). For p-LAT and p-PLCγ1 staining, fixed cells were treated with PBS containing 0.1% Triton-X 100 and 100 mM glycine for 15 min at room temperature and stained using rabbit p-LAT (Tyr^191) or rabbit anti-p-PLCγ1 (Tyr^783) probed with anti-rabbit IgG488 (Molecular Probes).
# (§2) For receptor capping studies, mouse primary B and CD11^+ cells were purified by positive selection using biotin anti-mouse CD45R/B220 clone RA3-6B2 and biotin anti-mouse CD11b clone M1/70 (BD Biosciences Pharmingen) respectively, followed by incubation with magnetic microbeads. The cells were analyzed for receptor capping using 25 μg/mL anti-mouse IgM and 25 μg/mL anti-mouse CD16/CD32 respectively, cross-linked with 25 μg/mL of anti-rat IgG594 for 10 min in the presence or absence of 50 μg/mL of Salp15. […]
# mouse CD4+ T lymphocytes = test: TCR ligation-induced protein tyrosine phosphorylation in anti-CD3/CD28 stimulated CD4+ T cells (immunoblotting, confocal microscopy); assay type: cell-based
# Description: (§3) Naïve CD4+ T cells from C3H/HeN, Balb/c, and B10.BR mice were purified as previously described (Anguita et al., 2002). CD4+ T cells were preincubated in Click's modified Bruff's Medium (Sigma Chemical Co., St. Louis, Mo., U.S.A.) for 10 minutes at 37° C. with and without Salp15 (50 μg/mL) and stimulated for 20 min or the indicated times at 37° C. with 10 μg/mL of anti-CD3ε, 1 μg/mL of anti-CD28, and 10 μg/mL of anti-armenian and syrian hamster IgG (BD Biosciences Pharmingen, San Jose, Calif., U.S.A.). Jurkat (E6-1) cells were stimulated using 5 μg/mL of OKT3 mAb (eBioscience, San Diego, Calif., U.S.A.) and 1 μg/mL of anti-human CD28 cross linked with 5 μg/mL anti-mouse IgG for the indicated times.
# as §1
# For tyrosine phosphorylation western analysis, cells were lysed in 60 mM Tris (pH 7.4) containing 150 mM NaCl, 5 mM EDTA, 1 mM EGTA, 1 mM β-glycerol phosphate, 2.5 mM sodium pyrophosphate, 25 mM NaF, 2 mM sodium orthovanadate, 1% Triton-X 100, 0.25% sodium deoxycholate, 1 mM PMSF and protease inhibitors for 15 min on ice, sonicated 4×5 sec and incubated at 37° C. for 10 min. The lysate was cleared by centrifugation and boiled in SDS-sample buffer. The samples were subjected to SDS-PAGE, transferred to a nitrocellulose membrane and immunoblotted with anti-pTyr, anti-pPLCγ1 and anti-Vav1, anti-pSrc family (Tyr^416) to measure p-Lck^394 (Alonso et al., 2004), anti-Lck, anti-pZap70 (Tyr^319), anti-Zap70, p44/42 and p44/42 (phopho-Tyr^204/Thr^202). Vav1 was immunoprecipitated using anti-Vav1 and protein A-agarose beads overnight, subjected to SDS-PAGE followed by immunoblotting with anti-pTyr or anti-Vav1. To examine the effect of Salp15 on T cell stimulation with INFγ, CD4^+ T cells were preincubated with Salp15 at 50 μg/mL followed by activation with 20 ng/mL of mouse recombinant INFγ (R & D Systems, Minneapolis, Minn., U.S.A.) for 30 min at 37° C. The cells were lysed as above and subjected to SDS-PAGE and immunoblotting with anti-pSTAT1 and anti-STAT1.
# Quantification of immunoblots was performed using the SCION IMAGE™ software package, Scion Corporation (Frederick, Md., U.S.A.).
# CD4+ T cells = test: Lipid raft redistribution (CTB594 staining, receptor capping) in activated CD4+ T cells; assay type: cell-based, mouse; settings: Salp15 treatment prior to anti-CD3/CD28 stimulation, murine cells
# Description: as §3, §1, §2
# [1] = system: fusion of HL2/3 cells expressing HIV envelope proteins with HeLa-CD4 cells; test: gp120-CD4-mediated cell fusion by luciferase assay (HeLa-CD4 + HL2/3 cells); assay type: cell-based; settings: 10 and 50 ug/ml Salp15; 48 hours
# Description: 106 HeLa-CD4 cells, clone 1022 (NIH AIDS Research & Reference Reagent Program, Germantown, Md., U.S.A.) were plated in a 6-well plate and transfected with the plasmid Blue 3′ LTR-luciferase (NIH AIDS Research & Reference Reagent Program) using the lipofectamin method (Invitrogen).
# After 24 hours, the cells were trypsinized and mixed with HL2/3 cells that express HIV envelope proteins (NIH AIDS Research & Reference Reagent Program), encoding Gag, Nef, Rev, Tat and Env proteins from HIV (0.2×106 HeLa-CD4+0.2×106 HL2/3) in a 24-well plate at a final volume of 500 uL. The cells were incubated in the presence of 10 and 50 ug/ml of Salp15. The positive control was anti-CD4 Ab and the negative control was anti-CD3.
# The cells were harvested after 48 hours, washed with PBS and lysed with 100 uL of Passive Lysis buffer (Promega) per well, for 15 min at RT. The lysates were transferred to Eppendorf tubes, spun at 10,000×g and assessed for Luciferase activity and protein content by the Bradford assay (BioRad). Luciferase activity is an indicator of cell fusion mediated by the interaction of HIV envelope proteins on HL2/3 cells and CD4 on HeLa-CD4 cells.
# [2] = Salp15 pretreatment, quantification of the specific bands
substance,measurement,setting,value
"Salp15: secreted salivary protein from Ixodes scapularis, SEQ ID NO: 2; recombinant His-tagged, produced in Drosophila S2 cells",Lipid raft reorganization (receptor capping),B cells and macrophages,did not affect
same,Lipid raft reorganization,CD8+ T cells,unaffected
same,Reduction of PLCγ1 phosphorylation (Tyr783),"mouse CD4+ T lymphocytes; Salp15 pretreatment (50 μg/mL), anti-CD3/CD28 stimulated, compared to control treated cells",46%
same,Reduction in tyrosine phosphorylation of Vav1,"mouse CD4+ T lymphocytes; Salp15 pretreatment, Vav1 immunoprecipitation, anti-pTyr immunoblot",~58%
same,Phosphorylation level of Lat at Tyr191,"mouse CD4+ T lymphocytes; Salp15 pretreatment, immunofluorescence",reduced
same,Reduction in tyrosine phosphorylation of Lck (Tyr394),mouse CD4+ T lymphocytes; [2],about 56%
same,Reduction in tyrosine phosphorylation of Zap70 (Tyr319),mouse CD4+ T lymphocytes; [2],~67%
same,ERK activation (ERK1/2 phosphorylation),mouse CD4+ T lymphocytes; anti-CD3/CD28 stimulation,does not impair
same,Lck phosphorylation in the absence of T cell stimulation,mouse CD4+ T lymphocytes; no stimulation,did not induce
same,Lipid raft clustering,CD4+ T cells,reduced
same,Reduction in cell fusion (luciferase activity),[1],concentration dependent reduction
